Data set [1] deals with T1, hERG product (Homo sapiens, UniProt Q12809).
T1 construct: host or cells: HEK-293S cells (membranes)
Kind of data set: Radioligand binding assay for [3H]-dofetilide binding to the hERG product expressed in HEK-293S cells. The following applies: displacement of 3H-UK068798 (~5 nM) from membranes of hERG expressing HEK-293S cells; Cheng-Prusoff. The procedure: (§1) A Radioligand Binding Assay for [^3H]-dofetilide Binding to the hERG Product Expressed in HEK-293S Cells
(§2) hERG expressing HEK-293S cells were obtained from University of Wisconsin and membranes prepared according to standard protocols. Membranes were diluted in assay buffer, consisting of Tris-HCl 50 mM; KCl 10 mM; MgCl2 1 mM pH 7.4 with NaOH, and were pre-coupled with 120 mg/ml YSi polylysine Scintillation Proximity Beads in a ratio of 16 ug protein to 1 mg bead for 2 hours at 4° C. The coupled beads were separated from uncoupled protein by centrifugation and re-suspended in cold assay buffer to give a working solution of 6.25 mgs/ml. 20 μl of test compound was added to a 96-well microtiteplate at a final assay top concentration of 10 μM in serial ½ log dilutions (1 in 3.162) to generate at 10 point IC50 curve. 20 μl of ^3H-UK068798 (Dofetilide, Amersham; specific activity 78-83 Ci/mmole) was placed in each well of a 96 well plate to a final assay concentration of ˜5 nM. To this, 160 μl of bead/membrane mixture was added. The assay plates were shaken for 1 hour at room temperature and incubated for a further 30 minutes at room temperature for beads to settle. The plates were then read on a Packard TopCount NXT. The percentage displacement of ^3H-UK068798 was calculated using 0% as defined by 1% DMSO vehicle in well and 100% as defined by 10 μM UK-068798. Dose response curves were fitted using a four parameter logistical fit and the Ki value was derived using the Cheng-Prusoff equation (Cheng, Y. C. & Prusoff, W. H. (1973). Biochem. Pharmacol., 22, 3099-3108. )
For orientation: The hERG channel carries a current that helps repolarise heart muscle cells.

Data set [2] concerns the target T2, human histamine H3 receptor (Homo sapiens, UniProt Q9Y5N1).
T2 construct: expressed in transfected cells; host or cells: HEK-293 cells expressing a CRE β-lactamase reporter gene
The data set is described as follows: H3 cell based functional assay (cAMP through β-lactamase reporter gene activity). The following applies: functional Ki from antagonist IC50 by Cheng-Prussoff; HEK-293 cells, 10 μM forskolin, 1 nM imetit. As for the experimental part:
H3 Cell Based Functional Assay Compounds were evaluated using a cell based functional assay measuring cAMP through β-lactamase reporter gene activity. A stable cell line was generated from HEK-293 cells expressing a CRE β-lactamase reporter gene and transfected with human histamine H3 receptor cDNA. Cells were seeded at a density of 500,000 cells/ml, and grown overnight in MEM (Invitrogen) supplemented with 1% dialysed FBS (Sigma), 2 mM glutamine (Sigma), 1 mM sodium pyruvate (Sigma), 0.1 mM non essential amino acids (Invitrogen) and 25 mM HEPES (Sigma) in poly D lysine coated 384 well plates (BD Biosciences).
On the technique in general: Reporter assays use an easily measured gene product as a stand-in for the process of interest.

The target in data set [3] is T3, hERG (Homo sapiens, UniProt Q12809).
T3 construct: host or cells: HEK-293S cells (membranes)
T3 sequence (Q12809 whole entry): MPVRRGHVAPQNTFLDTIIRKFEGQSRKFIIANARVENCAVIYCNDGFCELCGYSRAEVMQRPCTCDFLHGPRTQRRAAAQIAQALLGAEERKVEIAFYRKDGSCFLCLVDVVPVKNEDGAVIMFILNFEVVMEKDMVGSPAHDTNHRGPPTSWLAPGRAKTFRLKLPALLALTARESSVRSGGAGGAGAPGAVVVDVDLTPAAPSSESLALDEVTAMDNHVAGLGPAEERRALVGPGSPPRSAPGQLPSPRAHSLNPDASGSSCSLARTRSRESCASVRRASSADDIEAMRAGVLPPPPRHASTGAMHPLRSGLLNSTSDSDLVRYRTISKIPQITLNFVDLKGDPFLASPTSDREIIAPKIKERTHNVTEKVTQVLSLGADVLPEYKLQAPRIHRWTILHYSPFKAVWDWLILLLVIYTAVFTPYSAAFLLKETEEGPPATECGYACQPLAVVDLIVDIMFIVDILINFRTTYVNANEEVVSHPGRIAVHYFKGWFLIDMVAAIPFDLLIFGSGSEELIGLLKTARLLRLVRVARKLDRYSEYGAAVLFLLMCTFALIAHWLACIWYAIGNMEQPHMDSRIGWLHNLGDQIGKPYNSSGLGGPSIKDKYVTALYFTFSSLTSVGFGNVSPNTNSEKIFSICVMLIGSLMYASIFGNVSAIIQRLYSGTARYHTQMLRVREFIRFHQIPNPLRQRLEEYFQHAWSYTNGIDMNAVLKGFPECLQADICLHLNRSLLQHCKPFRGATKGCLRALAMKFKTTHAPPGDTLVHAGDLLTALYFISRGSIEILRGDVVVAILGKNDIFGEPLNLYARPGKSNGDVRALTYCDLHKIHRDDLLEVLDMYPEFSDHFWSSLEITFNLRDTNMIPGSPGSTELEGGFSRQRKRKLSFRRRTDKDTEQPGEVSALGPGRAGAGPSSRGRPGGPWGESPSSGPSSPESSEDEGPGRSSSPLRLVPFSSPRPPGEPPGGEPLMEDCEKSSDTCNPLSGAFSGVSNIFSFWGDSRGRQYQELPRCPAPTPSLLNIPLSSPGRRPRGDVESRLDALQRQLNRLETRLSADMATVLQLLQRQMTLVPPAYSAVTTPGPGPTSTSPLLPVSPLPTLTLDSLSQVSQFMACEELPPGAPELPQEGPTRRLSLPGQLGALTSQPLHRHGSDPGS
The data set is described as follows: Radioligand binding assay for [3H]-dofetilide binding to the hERG product expressed in HEK-293S cells. The following applies: human, membranes of HEK-293S cells expressing hERG, pH 7.4, probe [3H]-dofetilide (3H-UK068798); displacement of 3H-UK068798 (~5 nM) from membranes of hERG expressing HEK-293S cells; Cheng-Prusoff. The procedure:
as §1, §2

T2 sequence (Q9Y5N1 whole entry): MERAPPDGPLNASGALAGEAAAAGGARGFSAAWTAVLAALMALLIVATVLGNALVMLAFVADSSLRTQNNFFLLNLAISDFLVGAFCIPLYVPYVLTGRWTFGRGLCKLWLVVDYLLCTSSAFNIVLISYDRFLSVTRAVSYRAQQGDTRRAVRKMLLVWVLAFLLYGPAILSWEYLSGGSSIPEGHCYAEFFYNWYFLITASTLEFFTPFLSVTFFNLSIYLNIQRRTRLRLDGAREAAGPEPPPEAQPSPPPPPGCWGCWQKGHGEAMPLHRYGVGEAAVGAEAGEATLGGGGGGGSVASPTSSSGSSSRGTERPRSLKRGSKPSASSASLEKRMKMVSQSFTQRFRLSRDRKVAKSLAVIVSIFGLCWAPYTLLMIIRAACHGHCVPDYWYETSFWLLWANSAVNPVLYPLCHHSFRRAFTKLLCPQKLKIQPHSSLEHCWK
T1 sequence (Q12809 whole entry): as the sequence (Q12809 whole entry) above

With `C[C@@H]1CCCN1CCCOc1ccc2c(n1)CCN(c1cccnn1)C2` [Example 22, 2-{3-[(2R)-2-methylpyrrolidin-1-yl]propoxy}-6-pyridazin-3-yl-5,6,7,8-tetrahydro-1,6-naphthyridine], the Ki worked out at 51.8 µM in data set [1] and 0.00916 µM in data set [2].
Taken in the same sequence, the figures for `C[C@@H]1CCCN1CCCOc1ccc2c(n1)CCN(c1cnccn1)C2` [Example 23, 2-{3-[(2R)-2-methylpyrrolidin-1-yl]propoxy}-6-pyrazin-2-yl-5,6,7,8-tetrahydro-1,6-naphthyridine] were 11.5 µM and 0.0103 µM.
Taken in the same sequence, the figures for `Cc1ccc(N2CCc3nc(OCCCN4CCC[C@H]4C)ccc3C2)cn1` [Example 24, 6-(6-methylpyridin-3-yl)-2-{3-[(2R)-2-methylpyrrolidin-1-yl]propoxy}-5,6,7,8-tetrahydro-1,6-naphthyridine] were 35.6 µM and 0.00821 µM.
On the same counts, the results for `C[C@H]1CCCN1CCCOc1ccc2c(n1)CCN(c1cccnn1)C2` [Example 25, 2-{3-[(2S)-2-methylpyrrolidin-1-yl]propoxy}-6-pyridazin-3-yl-5,6,7,8-tetrahydro-1,6-naphthyridine] are 55.9 µM and 0.00556 µM.
As for `C[C@H]1CCCN1CCCOc1ccc2c(n1)CCN(c1cnccn1)C2` [Example 26, 2-{3-[(2S)-2-methylpyrrolidin-1-yl]propoxy}-6-pyrazin-2-yl-5,6,7,8-tetrahydro-1,6-naphthyridine], the inhibitory constant (Ki) is 9.88 µM in data set [1] and 0.00524 µM in data set [2].
Taken in the same sequence, the figures for `c1cnnc(N2CCc3nc(OCCCN4CCCCC4)ccc3C2)c1` [Example 29, 2-(3-piperidin-1-ylpropoxy)-6-pyridazin-3-yl-5,6,7,8-tetrahydro-1,6-naphthyridine] were 64.4 µM and 0.0198 µM.
Taken in the same sequence, the figures for `CNC(=O)c1ccc(N2CCc3nc(OCCCN4CCCC4)ccc3C2)nc1` [Example 44, N-methyl-6-[2-(3-pyrrolidin-1-ylpropoxy)-7,8-dihydro-1,6-naphthyridin-6(5H)-yl]nicotinamide] were 85.8 µM and 0.0181 µM.
Turning to `NC(=O)c1ccc(N2CCc3nc(OCCCN4CCCCC4)ccc3C2)nc1` [Example 48, 6-[2-(3-piperidin-1-ylpropoxy)-7,8-dihydro-1,6-naphthyridin-6(5H)-yl]nicotinamide], the affinity in data set [3], expressed as Ki at 1.5 h, was 100 µM. The same molecule displayed a Ki in data set [2] of 0.0145 µM.
Regarding `CNC(=O)c1ccc(N2CCc3nc(OCCCN4CCC[C@H]4C)ccc3C2)cn1` [Example 64, N-Methyl-5-[2-{3-[(2R)-2-methylpyrrolidin-1-yl]propoxy}-7,8-dihydro-1,6-naphthyridin-6(5H)-yl]pyridine-2-carboxamide], the results for the Ki in data set [1] and in data set [2] were 55.5 µM and 0.00467 µM, respectively.
On to `CNC(=O)c1ccc(N2CCc3nc(OCCCN4CCCC4)ccc3C2)cn1` [Example 65, N-Methyl-5-[2-(3-pyrrolidin-1-ylpropoxy)-7,8-dihydro-1,6-naphthyridin-6(5H)-yl]pyridine-2-carboxamide], for which the Ki in data set [1] is 46.1 µM; in data set [2], 0.0163 µM.
Take `CN(C)C(=O)c1ccc(N2CCc3nc(OCCCN4CCCC4)ccc3C2)cn1` [Example 67, N,N-Dimethyl-5-[2-(3-pyrrolidin-1-ylpropoxy)-7,8-dihydro-1,6-naphthyridin-6(5H)-yl]pyridine-2-carboxamide]: in data set [3], the Ki at 1.5 h is 100 µM. For the same molecule, the affinity in data set [2], expressed as Ki, was 0.0197 µM.
On the same counts, the results for `CNC(=O)c1ccc(N2CCc3nc(OCCCN4CCC[C@H]4C)ccc3C2)nc1` [Example 68, N-Methyl-6-[2-{3-[(2R)-2-methylpyrrolidin-1-yl]propoxy}-7,8-dihydro-1,6-naphthyridin-6(5H)-yl]nicotinamide] are 100 µM and 0.00828 µM.
As to `CNC(=O)c1ccc(N2CCc3nc(OC4CCN(C(C)C)CC4)ccc3C2)nc1` [Example 70, 6-[2-[(1-Isopropylpiperidin4-yl)oxy]-7,8-dihydro-1,6-naphthyridin-6(5H)-yl]-N-methylnicotinamide], the Ki turned out to be 94.4 µM in data set [1] and 0.00632 µM in data set [2].
`CC(C)N1CCC(Oc2ccc3c(n2)CCN(c2cnccn2)C3)CC1` [Example 71, 2-[(1-Isopropylpiperidin-4-yl)oxy]-6-pyrazin-2-yl-5,6,7,8-tetrahydro-1,6-naphthyridine]: the Ki in data set [1] was found to be 22.9 µM; in data set [2] it was 0.0137 µM.
As to `Cc1ccc(N2CCc3nc(OC4CCN(C(C)C)CC4)ccc3C2)cn1` [Example 72, 2-[(1-isoproplpiperidin-4-yl)oxy]-6-(6-methylpyridin-3-yl)-5,6,7,8-tetrahydro-1,6-naphthyridine], the results for the Ki in data set [1] and in data set [2] were 13.7 µM and 0.00486 µM, respectively.

What is called Ki is a dissociation constant, usually derived from enzyme kinetics or from competition with a known ligand. Higher therefore signals lower affinity.

Values taken from US7557121B2, “Tetrahydronaphthyridine derivatives” (Pfizer Inc, priority 2004, dated 2009).
